Assay results published in the supplement of paper PMC7600603.

How the values were obtained:
DLD1 NRF2-GOF [1] = assay: drug sensitivity score (DSS) viability (DSS score); higher = more sensitive; extreme values may be limits of the assay; conditions: 72 h; CellTiter-Glo viability
Method in brief: (§1)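 EC50 and drug sensitivity score, the latter a normalised area under the curve, were calculated from logistic dose-response fits. The fits had four parameters and used CellTiter-Glo viability data read on a Pherastar FS reader 72 h after treatment, normalised to vehicle wells and 100-μM positive-control wells. Treated cells were isogenic DLD1 colorectal cancer cells, NRF2 wild-type or CRISPR gain-of-function, exposed in 384-well plates to library compounds at 5 concentrations spanning a 10,000-fold range.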

DLD1 NRF2-WT [2] = assay: as above; conditions: 72 h; CellTiter-Glo viability
Method in brief: as §1

DLD1 NRF2-GOF [3] = assay: drug sensitivity score (DSS) cytotoxicity (DSS score); higher = more toxic; extreme values may be limits of the assay; conditions: 72 h; CellTox Green cytotoxicity
Method in brief: (§2)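 TC50 and drug sensitivity score, a normalised area under the curve, were derived by logistic dose-response fits of cytotoxicity. The cells were an isogenic DLD1 colorectal cancer pair, NRF2 wild-type or CRISPR-edited, kept in DMEM with 10% FBS. Compounds were tested in 384-well plates at 5 concentrations across a 10,000-fold range for 72 h. Readings with CellTox Green on a Pherastar FS reader were normalised to vehicle wells and 100-μM positive-control wells.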

DLD1 NRF2-WT [4] = assay: as above; conditions: 72 h; CellTox Green cytotoxicity
Method in brief: as §2

DLD1 NRF2-GOF [5] = conditions: 72 h; CellTiter-Glo viability
Method in brief: as §1

DLD1 NRF2-WT [6] = conditions: 72 h; CellTiter-Glo viability
Method in brief: as §1

DLD1 NRF2-GOF [7] = assay: TC50 cytotoxicity; higher = less toxic; conditions: 72 h; CellTox Green cytotoxicity
Method in brief: as §2

DLD1 NRF2-WT [8] = assay: TC50 cytotoxicity; higher = less toxic; conditions: 72 h; CellTox Green cytotoxicity
Method in brief: as §2

SMILES | drug sensitivity score (DLD1 NRF2-GOF [1]) | drug sensitivity score (DLD1 NRF2-WT [2]) | drug sensitivity score (DLD1 NRF2-GOF [3]) | drug sensitivity score (DLD1 NRF2-WT [4]) | EC50 viability (DLD1 NRF2-GOF [5]) | EC50 viability (DLD1 NRF2-WT [6]) | TC50 cytotoxicity (DLD1 NRF2-GOF [7]) | TC50 cytotoxicity (DLD1 NRF2-WT [8])
O=C1c2c(O)ccc(O)c2C(=O)c2c(NCCNCCO)ccc(NCCNCCO)c21 [Mitoxantrone] | 10.1 | 12.3 | 0 | 0 | 96.9 nM | 67.4 nM | > 1000 nM | > 1000 nM
CN(C)CCOc1ccc(/C(=C(/CCCl)c2ccccc2)c2ccccc2)cc1 [Toremifene] | 4.8 | 2.2 | 0 | 0 | 2140 nM | 4210 nM | > 10000 nM | > 10000 nM
COc1cc(C)[nH]c(=O)c1CNC(=O)c1c(C)n([C@H](C)C2CCOCC2)c2ccccc12 [CPI-360] | 7.4 | 0 | 0 | 0 | 198 nM | > 10000 nM | > 10000 nM | > 10000 nM
CCN1CCN(Cc2ccc(Nc3ncc(F)c(-c4cc(F)c5nc(C)n(C(C)C)c5c4)n3)nc2)CC1 [Abemaciclib] | 6.6 | 11.5 | 0 | 0 | 134 nM | 26.6 nM | > 2500 nM | > 2500 nM
C/C(=C\c1csc(C)n1)[C@@H]1C[C@@H]2O[C@]2(C)CCC[C@H](C)[C@H](O)[C@@H](C)C(=O)C(C)(C)[C@@H](O)CC(=O)N1 [Ixabepilone] | 4.2 | 3.5 | 0.5 | 2.4 | 317 nM | 407 nM | > 1000 nM | 201 nM
Cc1ncc(Cl)cc1NCc1ccc(C(=O)N[C@@H](CC2CCCC2)C(=O)NC2CC2)s1 | 0 | 4 | 0 | 0 | > 5000 nM | 401 nM | > 5000 nM | > 5000 nM
COC(=O)c1ccc2c(c1)NC(=O)/C2=C(\Nc1ccc(N(C)C(=O)CN2CCN(C)CC2)cc1)c1ccccc1 [Nintedanib] | 0 | 0.5 | 0 | 0.5 | > 10000 nM | > 10000 nM | > 10000 nM | > 10000 nM
O=c1[nH]cc(F)c(=O)[nH]1 [Fluorouracil] | 7.1 | 10.3 | 0 | 0 | 176 nM | 1 nM | > 10000 nM | > 10000 nM
CCN(CC)CCNC(=O)c1c(C)[nH]c(/C=C2\C(=O)Nc3ccc(F)cc32)c1C [Sunitinib] | 2.8 | 1.9 | 0 | 0 | 229 nM | 381 nM | > 1000 nM | > 1000 nM
COc1cc2nccc(Oc3ccc(NC(=O)Nc4cc(C)on4)c(Cl)c3)c2cc1OC [Tivozanib] | 2.3 | 3.1 | 4.5 | 2.3 | 3590 nM | 3040 nM | 2640 nM | 2920 nM
COc1cc(N2CCC(N3CCN(C)CC3)CC2)ccc1Nc1ncnc(Nc2ccccc2S(=O)(=O)C(C)C)n1 [ASP3026] | 3 | 3.3 | 0 | 0 | 3420 nM | 3550 nM | > 10000 nM | > 10000 nM
Cc1sc2c(c1C)C(c1ccc(Cl)cc1)=N[C@@H](CC(=O)NCCCCNC(=O)COc1cccc3c1C(=O)N(C1CCC(=O)NC1=O)C3=O)c1nnc(C)n1-2 (some centres undefined) [dBET1] | 0.7 | 6.5 | 0 | 0 | > 10000 nM | 620 nM | > 10000 nM | > 10000 nM
CN1CC[C@H](c2c(O)cc(O)c3c(=O)cc(-c4ccccc4Cl)oc23)[C@H](O)C1 [Alvocidib] | 16.2 | 20.1 | 0 | 0.8 | 266 nM | 156 nM | > 10000 nM | > 10000 nM
CCn1c(-c2nonc2N)nc2c(C#CC(C)(C)O)ncc(OC[C@H]3CCCNC3)c21 | 2.4 | 4.3 | 0 | 0 | 2870 nM | 1500 nM | > 10000 nM | > 10000 nM
CO[C@@H]1[C@H](N(C)C(=O)c2ccccc2)C[C@H]2O[C@]1(C)n1c3ccccc3c3c4c(c5c6ccccc6n2c5c31)C(=O)NC4 [Midostaurin] | 12.4 | 9.8 | 12.9 | 12.4 | 499 nM | 880 nM | 801 nM | 686 nM
C=CC(=O)Nc1cccc(Nc2nc(Nc3ccc(OCCOC)cc3)ncc2F)c1 [Spebrutinib] | 6.5 | 3.2 | 0 | 0 | 39.6 nM | 82.2 nM | > 1000 nM | > 1000 nM
COc1cc(NS(C)(=O)=O)ccc1Nc1c2ccccc2nc2ccccc12 [Amsacrine] | 6.2 | 4.4 | 0 | 0.7 | 1220 nM | 2400 nM | > 10000 nM | > 10000 nM
CS(=O)(=O)N1CCN(Cc2cc3nc(-c4cccc5[nH]ncc45)nc(N4CCOCC4)c3s2)CC1 [Pictilisib] | 5.8 | 6.8 | 0 | 0.1 | 1590 nM | 1000 nM | > 10000 nM | > 10000 nM
O=C(/C=C/c1cccnc1)NCCCCC1CCN(C(=O)c2ccccc2)CC1 [Daporinad] | 25.9 | 27.6 | 0 | 0 | 4.9 nM | 4 nM | > 1000 nM | > 1000 nM
CC(=O)c1cc2c(o1)C(=O)c1ccccc1C2=O [Napabucasin] | 23.9 | 21 | 19.6 | 16.1 | 210 nM | 361 nM | 465 nM | 617 nM
CNC(=O)c1ccc(C)c(-n2c(C)cc(OCc3ccc(F)cc3F)c(Br)c2=O)c1 | 0 | 1.3 | 0 | 0 | > 1000 nM | > 1000 nM | > 1000 nM | > 1000 nM
CNC(=O)c1nn(C)c2c1C(C)(C)Cc1cnc(Nc3ccc(N4CCN(C)CC4)cc3)nc1-2 [Milciclib] | 8.5 | 10.8 | 0 | 0.5 | 1190 nM | 926 nM | > 10000 nM | > 10000 nM

SMILES | drug sensitivity score (DLD1 NRF2-GOF [1]) | drug sensitivity score (DLD1 NRF2-WT [2]) | drug sensitivity score (DLD1 NRF2-GOF [3]) | drug sensitivity score (DLD1 NRF2-WT [4]) | EC50 viability (DLD1 NRF2-GOF [5]) | EC50 viability (DLD1 NRF2-WT [6]) | TC50 cytotoxicity (DLD1 NRF2-GOF [7]) | TC50 cytotoxicity (DLD1 NRF2-WT [8])
Cc1cc(C)c(CNC(=O)c2cc(-c3ccc(CN4CCOCC4)cc3)cc3c2cnn3C2CCCC2)c(=O)[nH]1 [EPZ-5687] | 3.2 | 3.3 | 0 | 0 | 1680 nM | > 10000 nM | > 10000 nM | > 10000 nM
C[C@@H](C(=O)O)c1ccc(-c2ccccc2)c(F)c1 [Tarenflurbil] | 0 | 0 | 0 | 0 | > 10000 nM | > 10000 nM | > 10000 nM | > 10000 nM
COc1ccc(COc2cc3oc(=O)c4cc(C(C)O)ccc4c3cc2OC)cc1 (centres undefined) [Palomid-529] | 0.6 | 0 | 0 | 0 | > 10000 nM | > 10000 nM | > 10000 nM | > 10000 nM
CCCCCCCCc1ccc(CCC(N)(CO)CO)cc1 [Fingolimod] | 6.7 | 5.5 | 6.4 | 5.6 | 2580 nM | 3220 nM | 2730 nM | 2420 nM
Cc1ccc(C(=O)Nc2cccc(C(F)(F)F)c2)cc1Nc1nc(-c2cccnc2)nc2c1cnn2C [NVP-BHG712] | 0.9 | 2.2 | 0 | 0 | > 10000 nM | > 10000 nM | > 10000 nM | > 10000 nM
O=C(NCc1ccncc1)C12CC3CC(C1)CC(c1ccc(Cl)cc1)(C3)C2 | 9 | 8.7 | 0.3 | 0 | 4090 nM | 5140 nM | > 50000 nM | > 50000 nM
FC(F)(F)c1ccc(CNc2ccc(Cc3c[nH]c4ncc(Cl)cc34)cn2)cn1 [Pexidartinib] | 0.9 | 0 | 0 | 0 | > 10000 nM | > 10000 nM | > 10000 nM | > 10000 nM
CC(C)C[C@H](NC(=O)[C@H](CCc1ccccc1)NC(=O)CN1CCOCC1)C(=O)N[C@@H](Cc1ccccc1)C(=O)N[C@@H](CC(C)C)C(=O)[C@@]1(C)CO1 [Carfilzomib] | 25.8 | 26.6 | 22.3 | 26.9 | 7.5 nM | 6.5 nM | 14.3 nM | 6.1 nM
C=CC(=O)N1CCC[C@@H](n2nc(-c3ccc(Oc4ccccc4)cc3)c3c(N)ncnc32)C1 [Ibrutinib] | 0 | 0.1 | 0 | 0 | > 1000 nM | > 1000 nM | > 1000 nM | > 1000 nM
CN(C)C(=O)c1cc2cnc(Nc3ccc(N4CCNCC4)cn3)nc2n1C1CCCC1 [Ribociclib] | 6.8 | 8.2 | 0 | 0 | 168 nM | 460 nM | > 10000 nM | > 10000 nM
NC1(c2ccc(-c3nc4ccn5c(=O)[nH]nc5c4cc3-c3ccccc3)cc2)CCC1 [MK-2206] | 0.7 | 4.3 | 0 | 0 | > 1000 nM | 52.2 nM | > 1000 nM | > 1000 nM
Cn1cc(C2=C(c3cn(C4CCN(Cc5ccccn5)CC4)c4ccccc34)C(=O)NC2=O)c2ccccc21 [Enzastaurin] | 0 | 0 | 0 | 0 | > 10000 nM | > 10000 nM | > 10000 nM | > 10000 nM
CC1=C(/C=C/C(C)=C/C=C/C(C)=C/C(=O)O)C(C)(C)CCC1 [Tretinoin] | 12.1 | 17.7 | 0 | 0 | 96.5 nM | 1 nM | > 10000 nM | > 10000 nM
COc1cc2c(Oc3ccc(NC(=O)C4(C(=O)Nc5ccc(F)cc5)CC4)cc3F)ccnc2cc1OCCCN1CCOCC1 [Foretinib] | 3.3 | 2.1 | 6.3 | 3.2 | 361 nM | 414 nM | 267 nM | 280 nM
Nc1nc(Cl)nc2c1ncn2[C@H]1C[C@H](O)[C@@H](CO)O1 [Cladribine] | 5.5 | 10.4 | 0 | 0 | 145 nM | 25.6 nM | > 1000 nM | > 1000 nM
Cc1nc(-c2cn3c(n2)-c2ccc(-c4cnn(C(C)(C)C(N)=O)c4)cc2OCC3)n(C(C)C)n1 [Taselisib] | 0.9 | 5.5 | 0 | 0.4 | > 1000 nM | 11.7 nM | > 1000 nM | > 1000 nM
CN1CCN(c2nc(C3=C(c4c[nH]c5ccccc45)C(=O)NC3=O)c3ccccc3n2)CC1 [Sotrastaurin] | 0 | 1.2 | 0 | 0 | > 10000 nM | > 10000 nM | > 10000 nM | > 10000 nM
CCN(CC)C(=S)SSC(=S)N(CC)CC [Disulfiram(+CuCl2)] | 0.1 | 0.1 | 0 | 0 | > 50000 nM | > 50000 nM | > 50000 nM | > 50000 nM
CC(=O)c1cnc2ccc(-c3cc(Cl)c(O)c(Cl)c3)nc2c1N[C@H]1CC[C@H](CN(C)C)CC1 [OTS167] | 13 | 12.8 | 3 | 0.6 | 54.5 nM | 70.7 nM | > 1000 nM | > 1000 nM
Cc1cccc(-c2nn3c(c2-c2ccnc4ccc(C(N)=O)cc24)CCC3)n1 [Galunisertib] | 2.6 | 1.6 | 0 | 0 | 163 nM | > 1000 nM | > 1000 nM | > 1000 nM
CCN(CC)CCCC(C)Nc1c2ccc(Cl)cc2nc2ccc(OC)cc12 (centres undefined) [Mepacrine] | 18.2 | 19.4 | 9.9 | 11.7 | 1510 nM | 1210 nM | 7070 nM | 5030 nM
